Test results reported in ChEMBL document CHEMBL1131355 (Bioorg Med Chem Lett, 1998).
pKi: −log10 of the molar value.

target: 5-hydroxytryptamine receptor 2A (Rattus norvegicus, UniProt P14842); assay: biochemical; format: tissue-based, Frontal cortex, Membrane
Sequence (P14842 whole entry): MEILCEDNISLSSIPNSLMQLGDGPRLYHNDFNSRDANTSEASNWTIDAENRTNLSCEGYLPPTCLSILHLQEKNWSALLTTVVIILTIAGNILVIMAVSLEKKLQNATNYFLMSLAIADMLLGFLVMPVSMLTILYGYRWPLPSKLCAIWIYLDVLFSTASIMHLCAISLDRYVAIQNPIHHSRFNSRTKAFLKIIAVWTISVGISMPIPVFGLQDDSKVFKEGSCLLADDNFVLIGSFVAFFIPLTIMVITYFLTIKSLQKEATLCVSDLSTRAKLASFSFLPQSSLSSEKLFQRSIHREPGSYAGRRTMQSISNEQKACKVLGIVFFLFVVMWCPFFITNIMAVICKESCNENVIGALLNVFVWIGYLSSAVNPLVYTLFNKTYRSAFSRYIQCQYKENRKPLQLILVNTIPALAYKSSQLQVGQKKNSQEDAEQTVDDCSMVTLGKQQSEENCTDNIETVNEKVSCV
Description: Compound was measured for the inhibition of [3H]ketanserin binding to rat frontal cortex membrane (5-HT2A receptor)

Structure (SMILES)	pKi
O=C1CC(CN2CCC(C(=O)c3ccc(F)cc3)CC2)Cc2[nH]c3ccccc3c21 (stereo not drawn)	8.04
COc1ccccc1N1CCN(CC2CC(=O)c3c([nH]c4ccccc34)C2)CC1 (stereo not drawn)	6.20
O=C1CC(CN2CCC(c3noc4cc(F)ccc34)CC2)Cc2[nH]c3ccccc3c21 (stereo not drawn)	8.80
